Earlier results in patent US20200261389A1 (priority 2014, published 2020).
Read-outs that look alike come from different tables or passages of the source.

How the values were obtained:
retroviruses = details: millimolar concentrations, in vitro
[1] = tested on: zinc-dependent metalloproteinases; details: for reduction of GP shedding: higher concentrations (25-50 mM)
cultured cells = details: added to cultured cells
[2] = tested on: Human Foreskin (HF) cells infected with HSV-2-strain G; details: 3 to 1.5 mM

SMILES: O=C(O)CN(CCN(CC(=O)O)CC(=O)O)CC(=O)O [EDTA, ethylenediaminetetraacetic acid]
- effect on retroviruses (retroviruses): partial disintegration of viral membranes

SMILES: c1cnc2c(c1)ccc1cccnc12 [1,10-phenanthroline]
- apoptosis / cell death of leukemia cells (leukemia cells): DNA fragmentation and cell death occurred

SMILES: CNC(=O)[C@H](Cc1c[nH]c2ccccc12)NC(=O)[C@@H](CC(=O)NO)CC(C)C [GM6001]
- inhibition of glycoprotein shedding ([1]; concentration of 5 mM): inhibitory effects were observed

SMILES: CC(C)C[C@H](CC(=O)NO)C(=O)N[C@@H](Cc1ccc2ccccc2c1)C(=O)N[C@@H](C)C(=O)NCCN [TAPI-I]
- reduction of GP shedding [1]: reduced GP shedding

SMILES: COc1ccc(S(=O)(=O)N2Cc3ccccc3C[C@@H]2C(=O)NO)cc1 [MMP-8 inhibitor I]
- inhibition of glycoprotein shedding ([1]; concentration of 5 mM): inhibitory effects were observed

SMILES: c1ccc(CN(CCN(Cc2ccccn2)Cc2ccccn2)Cc2ccccn2)nc1 [TPEN, N,N,N′,N′-tetrakis-2-pyridyl methyl-ethylene diamine]
- apoptosis of cultured cells (cultured cells): induces apoptosis

SMILES: COc1ccc(S(=O)(=O)N(CC(=O)NO)CC(C)C)cc1 [MMP-3 inhibitor II]
- reduction of GP shedding [1]: reduced GP shedding

SMILES: O=C(O)c1ccccn1 [picolinic acid]
- apoptosis of infected cells [2]: cause apoptosis of HF infected cells
- apoptosis / cell death of leukemia cells (leukemia cells): induces apoptosis

SMILES: O=C(O)CN(CCOCCOCCN(CC(=O)O)CC(=O)O)CC(=O)O [EGTA, ethylene glycol tetraacetic acid]
- effect on retroviruses (retroviruses): partial disintegration of viral membranes

SMILES: COc1ccc(S(=O)(=O)N(Cc2cccnc2)[C@@H](C(=O)NO)C(C)C)cc1 [CGS-27023A]
- reduction of GP shedding [1]: reduced GP shedding

SMILES: CNC(=O)[C@@H](NC(=O)[C@H](CC(C)C)[C@H](O)C(=O)NO)C(C)(C)C [BB2516]
- inhibition of glycoprotein shedding ([1]; concentration of 0.5 mM): inhibitory effects were observed
